Experimental data published in patent US9708312B2, “Dihydropyrimidinoisoquinolinones and pharmaceutical compositions thereof for the treatment of inflammatory disorders (GPR84 antagonists)” (GALAPAGOS NV, priority 2012, dated 2017).

What follows are molecules tested on human neutrophils (assay: Human neutrophil migration assay (embelin-induced chemotaxis)). Conditions: Neutrophil; neutrophils from human buffy coats; embelin at EC80.
Format: cell-based
Experimental: 2.1. Human Neutrophil Migration Assay
The effect of agonists or antagonists for GPR84 can therefore be assayed in a neutrophil migration test. In the neutrophil migration assay, neutrophils, freshly isolated from buffy coats from human volunteers, are treated with a compound for 30 min Subsequently, the neutrophils are transferred to the upper wells of a Corning HTS transwell 96 permeable support system, of which the lower wells are filled with a embelin solution at EC80 (concentration which gives 80% of the activity of GPR84). After 1 h of incubation, migration of the neutrophils towards embelin in the lower compartment can be quantified by measuring the ATP-content of the lower wells using the ATPlite luminescence ATP detection assay system (Perkin Elmer, Cat. No.: 436110).
2.1.1 Isolation of Neutrophils from Human Buffy Coat
A human buffy coat is diluted with an equal volume of ice cold DPBS. 20 mL of the diluted buffy coat is gently mixed with 4 mL of ACD buffer (140 mM citric acid, 200 mM sodium citrate and 220 mM dextrose). Then, 12 mL of the 6% dextran/0.9% NaCl solution (15 g dextran T2000 and 2.25 g NaCl dissolved in 250 mL H2O) is added to the mixture and the samples are inverted gently up to 20 times. The total volume was transferred to a new recipient and incubated at room temperature for 1 h for complete separation of the two phases to occur. The yellowish supernatant is then transferred to a clean centrifugation tube and centrifuged for 12 min at 1300 rpm and 4° C. After centrifugation, the supernatant is discarded and the remaining cell pellet is rapidly resuspended in 12 mL of ice-cold H2O for red blood cell lysis to occur. After 20 seconds, 4 mL of ice-cold 0.6 M KCl is added. Samples are mixed carefully and centrifuged for 6 min at 1300 rpm, 4° C. The supernatant is discarded and the red blood cell lysis procedure is repeated one more time. Subsequently, the cell pellet is resuspended in 4 mL of DPBS and layered over 5 mL of Lymphoprep (Nycomed Pharma, Cat. No.: 1114545) in a 15 mL centrifuge tube. After centrifugation for 12 min at 1300 rpm, 4° C., the supernatant is removed and the cell pellet, containing the neutrophils, is resuspended in 25 mL chemotaxis buffer (RPMI 1640 medium, supplemented with 10 mM HEPES; freshly made for each experiment)
A cell suspension of 8.9×10^6 cells per milliliter is prepared. 20 μL of compound solution in chemotaxis buffer is added to 180 μL cell suspension. The mixture is incubated at 37° C. for 30 min with intermediate resuspension of the cells after 15 min Following this, 70 μL cell suspension is transferred to the upper compartment of a Corning HTS transwell 96 permeable support system with 5.0 μm pore size polycarbonate membrane (Corning, Cat. No.: 3387). The receiver well of the transwell system is then filled with 200 μL chemotaxis buffer containing compound and chemotactic agent (embelin). After incubation at 37° C. in 5% CO2 for 1 h, the upper plate of the transwell system is removed and the cell suspension in the receiver plate is transferred to a 96-well V-bottom plate. 50 μL of DPBS is added to the receiver plate to prevent remaining cells from drying out. The V-bottom plate is centrifuged for 6 min at 1500 rpm. The supernatant is removed and the cells are resuspended in 50 μL DPBS. The cells are then transferred back to the receiver plate of the transwell system. After this, 100 μL ATPlite solution (Perkin Elmer, Cat. No: 436110) was added to the cells. The plate is incubated for 10 min in the dark, while shaking. […] of cell lysate is then transferred to a white 96-well plate and luminescence is measured. The detected luminescent signal is considered as linearely related to the number of cells having migrated from the upper well to the receiver well.
`O=c1nc(OCC2COc3ncccc3O2)cc2n1CCc1cc(COCCN3CCOCC3)ccc1-2` (centres unmarked) [compound 192, 2-(2,3-dihydro-[1,4]dioxino[2,3-b]pyridin-2-ylmethoxy)-9-(2-morpholin-4-yl-ethoxymethyl)-6,7-dihydro-pyrimido[6,1-a]isoquinolin-4-one] was tested, and the IC50 was 0.01 to 100 nM.
For `CC1(COCc2ccc3c(c2)CCn2c-3cc(OCC3COc4ncccc4O3)nc2=O)COC1` (centres unmarked) [compound 200, 2-(2,3-dihydro-[1,4]dioxino[2,3-b]pyridin-2-ylmethoxy)-9-(3-methyl-oxetan-3-ylmethoxymethyl)-6,7-dihydro-pyrimido[6,1-a]isoquinolin-4-one], the IC50 was 0.01 to 100 nM.
`CC(C)C(O)C#Cc1ccc2c(c1)CCn1c-2cc(OCC2COc3ncccc3O2)nc1=O` (centres unmarked) [compound 188, 2-(2,3-dihydro-[1,4]dioxino[2,3-b]pyridin-2-ylmethoxy)-9-(3-hydroxy-4-methyl-pent-1-ynyl)-6,7-dihydro-pyrimido[6,1-a]isoquinolin-4-one] gave an IC50 of 0.01 to 100 nM.
`O=c1nc(OCC2CCCO2)cc2n1CCc1cc(OCCOc3ccccc3)ccc1-2` (centres unmarked) [compound 15, 9-(2-phenoxy-ethoxy)-2-(tetrahydro-furan-2-ylmethoxy)-6,7-dihydro-pyrimido[6,1-a]isoquinolin-4-one] showed an IC50 of 0.01 to 100 nM.
For `O=c1nc(OCC2COc3ncccc3O2)cc2n1CCc1cc(CN3CCCCC3)ccc1-2` (centres unmarked) [compound 199, 2-(2,3-dihydro-[1,4]dioxino[2,3-b]pyridin-2-ylmethoxy)-9-piperidin-1-ylmethyl-6,7-dihydro-pyrimido[6,1-a]isoquinolin-4-one], the IC50 was 0.01 to 100 nM.
`O=c1nc(OCC2CCCO2)cc2n1CCc1cc(OCc3cccc(-c4cncnc4)n3)ccc1-2` (centres unmarked) [compound 57, 9-(6-pyrimidin-5-yl-pyridin-2-ylmethoxy)-2-(tetrahydro-furan-2-ylmethoxy)-6,7-dihydro-pyrimido[6,1-a]isoquinolin-4-one] gave an IC50 of 100 to 500 nM.
For `O=c1nc(OCC2COc3ncccc3O2)cc2n1CCc1cc(OCc3ncco3)ccc1-2` (centres unmarked) [compound 86, 2-(2,3-dihydro-[1,4]dioxino[2,3-b]pyridin-2-ylmethoxy)-9-(oxazol-2-ylmethoxy)-6,7-dihydro-pyrimido[6,1-a]isoquinolin-4-one], the IC50 was 0.01 to 100 nM.
Molecule `O=c1nc(OCC2COc3ncccc3O2)cc2n1CCc1cc(OCc3nnn[nH]3)ccc1-2` (centres unmarked) [compound 93, 2-(2,3-dihydro-[1,4]dioxino[2,3-b]pyridin-2-ylmethoxy)-9-(1H-tetrazol-5-ylmethoxy)-6,7-dihydro-pyrimido[6,1-a]isoquinolin-4-one] has an IC50 of 100 to 500 nM.
Molecule `O=c1nc(OCC2COc3ccccc3O2)cc2n1CCc1cc(OCc3nnn[nH]3)ccc1-2` (centres unmarked) [compound 76, 2-(2,3-dihydro-benzo[1,4]dioxin-2-ylmethoxy)-9-(1H-tetrazol-5-ylmethoxy)-6,7-dihydro-pyrimido[6,1-a]isoquinolin-4-one] has an IC50 of 0.01 to 100 nM.

What follows are molecules tested against T1, GPR84 (Homo sapiens, UniProt Q9NQS5) (assay: GPR84 [35S]GTPγS binding assay, HEPES buffer). Conditions: 3,3′ di indolylmethane at EC80, membranes from stable cell line over expressing GPR84.
T1 construct: expressed in transfected cells
T1 sequence (Q9NQS5 whole entry): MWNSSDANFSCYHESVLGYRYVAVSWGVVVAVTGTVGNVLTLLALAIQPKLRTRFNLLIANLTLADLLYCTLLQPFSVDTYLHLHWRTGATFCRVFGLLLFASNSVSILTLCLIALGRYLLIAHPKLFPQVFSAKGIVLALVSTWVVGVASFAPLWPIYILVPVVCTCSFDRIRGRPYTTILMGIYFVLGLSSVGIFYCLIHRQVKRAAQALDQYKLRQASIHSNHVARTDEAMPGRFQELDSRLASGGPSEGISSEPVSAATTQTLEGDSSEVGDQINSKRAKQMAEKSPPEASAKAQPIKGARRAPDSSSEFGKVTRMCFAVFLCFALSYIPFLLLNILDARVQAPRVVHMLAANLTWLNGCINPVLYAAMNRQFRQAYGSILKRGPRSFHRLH
Format: biochemical
Summary of the method: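 Membranes from a stable GPR84-overexpressing cell line (20 μg/well), pre-incubated with 0.1 μM GDP for 15 min at 4° C, mixed with 0.1 nM [35S]GTPγS and WGA SpA beads in 20 mM HEPES pH 7.4, 5 mM MgCl2, 250 mM NaCl, 0.05% BSA, 75 ug/mL saponin. Incubated 90 min at room temperature; scintillation proximity read after centrifugation.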
`O=c1nc(OCC2CCCO2)cc2n1CCc1cc(OCc3ccc(F)cc3)ccc1-2` (centres unmarked) [compound 24, 9-(4-fluoro-benzyloxy)-2-(tetrahydro-furan-2-ylmethoxy)-6,7-dihydro-pyrimido[6,1-a]isoquinolin-4-one] gave an IC50 of 100 to 500 nM.
`CC(C)(C)c1nc(COc2ccc3c(c2)CCn2c-3cc(OCC3COc4ncccc4O3)nc2=O)no1` (centres unmarked) [compound 158, 9-(5-tert-Butyl-[1,2,4]oxadiazol-3-ylmethoxy)-2-(2,3-dihydro-[1,4]dioxino[2,3-b]pyridin-2-ylmethoxy)-6,7-dihydro-pyrimido[6,1-a]isoquinolin-4-one] showed an IC50 of 0.01 to 100 nM.
Molecule `COc1ccc(-c2ccc3c(c2)CCn2c-3cc(OCC3CCCO3)nc2=O)cc1` (centres unmarked) [compound 101, 9-(4-methoxy-phenyl)-2-(tetrahydro-furan-2-ylmethoxy)-6,7-dihydro-pyrimido[6,1-a]isoquinolin-4-one] has an IC50 of 100 to 500 nM.
In the case of `O=c1nc(OCC2COc3ncccc3O2)cc2n1CCc1cc(OCCN3CCOCC3)ccc1-2` (centres unmarked) [compound 90, 2-(2,3-dihydro-[1,4]dioxino[2,3-b]pyridin-2-ylmethoxy)-9-(2-morpholin-4-yl-ethoxy)-6,7-dihydro-pyrimido[6,1-a]isoquinolin-4-one], the IC50 is reported as 100 to 500 nM.
With `CN1CCCC1CCOc1ccc2c(c1)CCn1c-2cc(OCC2COc3ccccc3O2)nc1=O` (centres unmarked) [compound 83, 2-(2,3-dihydro-benzo[1,4]dioxin-2-ylmethoxy)-9-[2-(1-methyl-pyrrolidin-2-yl)-ethoxy]-6,7-dihydro-pyrimido[6,1-a]isoquinolin-4-one] the IC50 was 100 to 500 nM.
For `N#Cc1ccccc1COc1ccc2c(c1)CCn1c-2cc(OCC2CCCO2)nc1=O` (centres unmarked) [compound 20, 2-[4-oxo-2-(tetrahydro-furan-2-ylmethoxy)-6,7-dihydro-4H-pyrimido[6,1-a]isoquinolin-9-yloxymethyl]-benzonitrile], the IC50 was 0.01 to 100 nM.
For `O=c1nc(OCC2CCCO2)cc2n1CCc1cc(OCc3nnnn3C3CC3)ccc1-2` (centres unmarked) [compound 58, 9-(1-cyclopropyl-1H-tetrazol-5-ylmethoxy)-2-(tetrahydro-furan-2-ylmethoxy)-6,7-dihydro-pyrimido[6,1-a]isoquinolin-4-one], the IC50 was 100 to 500 nM.
Molecule `O=c1nc(OCC2COc3ncccc3O2)cc2n1CCc1cc(CN3CCOCC3)ccc1-2` (centres unmarked) [compound 150, 2-(2,3-dihydro-[1,4]dioxino[2,3-b]pyridin-2-ylmethoxy)-9-morpholin-4-ylmethyl-6,7-dihydro-pyrimido[6,1-a]isoquinolin-4-one] has an IC50 of 0.01 to 100 nM.
Work on `Cc1cc(COc2ccc3c(c2)CCn2c-3cc(OCC3COc4ncccc4O3)nc2=O)on1` (centres unmarked) [compound 159, 2-(2,3-dihydro-[1,4]dioxino[2,3-b]pyridin-2-ylmethoxy)-9-(3-methyl-isoxazol-5-ylmethoxy)-6,7-dihydro-pyrimido[6,1-a]isoquinolin-4-one] yielded an IC50 of 0.01 to 100 nM.
Work on `COc1cncc(-c2ccc3c(c2)CCn2c-3cc(OCC3COc4ncccc4O3)nc2=O)c1` (centres unmarked) [compound 140, 2-(2,3-dihydro-[1,4]dioxino[2,3-b]pyridin-2-ylmethoxy)-9-(5-methoxy-pyridin-3-yl)-6,7-dihydro-pyrimido[6,1-a]isoquinolin-4-one] yielded an IC50 of 0.01 to 100 nM.
`CCNC1(C#Cc2ccc3c(c2)CCn2c-3cc(OCC3COc4ncccc4O3)nc2=O)COC1` (centres unmarked) [compound 201, 2-(2,3-dihydro-[1,4]dioxino[2,3-b]pyridin-2-ylmethoxy)-9-(3-ethylamino-oxetan-3-ylethynyl)-6,7-dihydro-pyrimido[6,1-a]isoquinolin-4-one] gave an IC50 of 100 to 500 nM.
In the case of `O=c1nc(OCC2COc3ccccc3O2)cc2n1CCc1cc(OCCN3CCCC3)ccc1-2` (centres unmarked) [compound 79, 2-(2,3-dihydro-benzo[1,4]dioxin-2-ylmethoxy)-9-(2-pyrrolidin-1-yl-ethoxy)-6,7-dihydro-pyrimido[6,1-a]isoquinolin-4-one], the IC50 is reported as 100 to 500 nM.
Work on `CNCC#Cc1ccc2c(c1)CCn1c-2cc(OCC2COc3ncccc3O2)nc1=O` (centres unmarked) [compound 171, 2-(2,3-dihydro-[1,4]dioxino[2,3-b]pyridin-2-ylmethoxy)-9-(3-methylamino-prop-1-ynyl)-6,7-dihydro-pyrimido[6,1-a]isoquinolin-4-one] yielded an IC50 of 500 to 1000 nM.
With `CN(C)c1ccc(-c2ccc3c(c2)CCn2c-3cc(OCC3CCCO3)nc2=O)cc1` (centres unmarked) [compound 105, 9-(4-dimethylamino-phenyl)-2-(tetrahydro-furan-2-ylmethoxy)-6,7-dihydro-pyrimido[6,1-a]isoquinolin-4-one] the IC50 was 100 to 500 nM.
